Patent publication US20170369523A1, “TEMPLATE-FIXED BETA-HAIRPIN PEPTIDOMIMETICS THAT ARE LIGANDS FOR G-PROTEIN-COUPLED RECEPTORS (GPCRS) AND ARE MODULATORS OF TRANSCRIPTION FACTORS AND COACTIVATORS” (POLYPHOR AG, priority 2008, published 2017)
Read-outs that look alike come from different tables or passages of the source. Bridge positions count the residues as written; N and C are the ends. Square brackets hold non-standard residues; d marks the D form. Peptide text beside a SMILES is read from it. Trp(6-Cl) = N[C@@H](Cc1c[nH]c2cc(Cl)ccc12)C(=O)O; Gly(octyl) = CCCCCCCC[C@H](N)C(=O)O; Cha = N[C@@H](CC1CCCCC1)C(=O)O; Orn = NCCC[C@H](N)C(=O)O

T1: human UTR2 receptor (Homo sapiens, UniProt Q9UKP6)
T1 construct: expressed in transfected cells; host or cells: mouse pre-B cell line 300-19
T1 sequence (Q9UKP6 1-389): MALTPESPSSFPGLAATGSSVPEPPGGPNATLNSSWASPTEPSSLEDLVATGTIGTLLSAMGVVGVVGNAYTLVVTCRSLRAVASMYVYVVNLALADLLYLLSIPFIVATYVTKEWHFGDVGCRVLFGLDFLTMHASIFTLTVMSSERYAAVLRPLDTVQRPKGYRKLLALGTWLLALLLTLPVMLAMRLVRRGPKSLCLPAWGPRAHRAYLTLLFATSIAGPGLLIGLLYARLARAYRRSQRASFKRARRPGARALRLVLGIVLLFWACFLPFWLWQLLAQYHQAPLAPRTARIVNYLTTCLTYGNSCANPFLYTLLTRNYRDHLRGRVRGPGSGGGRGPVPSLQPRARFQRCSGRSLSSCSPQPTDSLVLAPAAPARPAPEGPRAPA

T2: NCoA-1 (UniProt Q15788 257-385, limits assumed)
T2 construct: also called SRC-1
T2 sequence (looked up): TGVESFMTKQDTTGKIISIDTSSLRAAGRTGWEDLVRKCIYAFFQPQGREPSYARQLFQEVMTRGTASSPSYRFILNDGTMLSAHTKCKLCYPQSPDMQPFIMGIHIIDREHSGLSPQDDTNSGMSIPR

T3: human UTR2 receptor (human, UniProt Q9UKP6 1-389)
T3 sequence (looked up): T1 sequence (Q9UKP6 1-389)

B1: Ex. 4 (peptide)
peptide: cyclo(FEWL[dA]WEF[dP]P)
SMILES: CC(C)C[C@@H]1NC(=O)[C@H](Cc2c[nH]c3ccccc23)NC(=O)[C@H](CCC(=O)O)NC(=O)[C@H](Cc2ccccc2)NC(=O)[C@@H]2CCCN2C(=O)[C@H]2CCCN2C(=O)[C@H](Cc2ccccc2)NC(=O)[C@H](CCC(=O)O)NC(=O)[C@H](Cc2c[nH]c3ccccc23)NC(=O)[C@@H](C)NC1=O
notes: cyclo(-P1..P8-template-)
B2: Ex. 30 (peptide)
peptide: cyclo(DCFWKYCL[dE]P)
modifications: disulfide 2-7
SMILES: CC(C)C[C@@H]1NC(=O)[C@@H]2CSSC[C@H](NC(=O)[C@H](CC(=O)O)NC(=O)[C@@H]3CCCN3C(=O)[C@@H](CCC(=O)O)NC1=O)C(=O)N[C@@H](Cc1ccccc1)C(=O)N[C@@H](Cc1c[nH]c3ccccc13)C(=O)N[C@@H](CCCCN)C(=O)N[C@@H](Cc1ccc(O)cc1)C(=O)N2
B3: Ex. 28 (peptide)
peptide: cyclo(DCFWKYCL[dS]P)
modifications: disulfide 2-7
SMILES: CC(C)C[C@@H]1NC(=O)[C@@H]2CSSC[C@H](NC(=O)[C@H](CC(=O)O)NC(=O)[C@@H]3CCCN3C(=O)[C@@H](CO)NC1=O)C(=O)N[C@@H](Cc1ccccc1)C(=O)N[C@@H](Cc1c[nH]c3ccccc13)C(=O)N[C@@H](CCCCN)C(=O)N[C@@H](Cc1ccc(O)cc1)C(=O)N2
B4: Ex. 6 (peptide)
peptide: cyclo(FE[Trp(6-Cl)]LA[Gly(octyl)]EF[dP]P)
SMILES: CCCCCCCC[C@@H]1NC(=O)[C@H](C)NC(=O)[C@H](CC(C)C)NC(=O)[C@H](Cc2c[nH]c3cc(Cl)ccc23)NC(=O)[C@H](CCC(=O)O)NC(=O)[C@H](Cc2ccccc2)NC(=O)[C@@H]2CCCN2C(=O)[C@H]2CCCN2C(=O)[C@H](Cc2ccccc2)NC(=O)[C@H](CCC(=O)O)NC1=O
notes: cyclo(-P1..P8-template-)
B5: Ex. 33 (peptide)
peptide: cyclo(DCYWKYCL[dP]P)
modifications: disulfide 2-7
SMILES: CC(C)C[C@@H]1NC(=O)[C@@H]2CSSC[C@H](NC(=O)[C@H](CC(=O)O)NC(=O)[C@@H]3CCCN3C(=O)[C@H]3CCCN3C1=O)C(=O)N[C@@H](Cc1ccc(O)cc1)C(=O)N[C@@H](Cc1c[nH]c3ccccc13)C(=O)N[C@@H](CCCCN)C(=O)N[C@@H](Cc1ccc(O)cc1)C(=O)N2

Assays:
in vitro [1] = assay type: cell-based; conditions: for GI50 at 48 h: African green monkey
Experimental: (§1) The cytotoxicity of the peptides to HELA cells (Acc57) and COS-7 cells (CRL-1651) was determined using the MTT reduction assay. Briefly, the method was as follows: 7000 HELA cells/well and 4500 COS-7 cells/well were seeded and grown in 96-well microtiter plates for 24 h at 37° C. at 5% CO2. Thereafter, time zero (Tz) was determined by MTT reduction (see below). The supernatant of the remaining wells was discarded, and fresh medium and compounds in serial dilutions (12.5, 25 and 50 μM, triplicates) were pipetted into the wells. After incubation of the cells for 48 h at 37° C. at 5% CO2 the supernatant was discarded again and 100 μL MTT reagent (0.5 mg/mL in RPMI1640 and DMEM, respectively)/well was added. Following incubation at 37° C. for 2 h the media were aspirated and the cells were spiked (100 μl isopropanol/well). The absorbance of the solubilized formazan was measured at 595 nm (OD595peptide). For each concentration averages were calculated from triplicates. The percentage of growth was calculated as follows: (OD595peptide-OD595Tz-OD595Empty well)/(OD595Tz-OD595Empty well)×100%. The GI50 (Growth Inhibition) concentrations were calculated for each peptide by using a trend line function for the concentrations (50, 25, 12.5 and 0 μM), the corresponding percentages and the value 50, (=TREND (C50:C0,%50:%0,50).

human UTR2 receptor [2] = molecular target: T1, human UTR2 receptor; assay: Ca2+ assay: UTR2 receptor-agonizing and antagonizing activity (calcium mobilization, Flexstation); assay type: cell-based
Excerpt: 2.3. Ca^2+− Assay: UTR2 Receptor-Agonizing and Antagonizing Activity of the Peptides
The mouse pre-B cell line 300-19 was stably transfected with the cDNA encoding the human UTR2 receptor (GenBank Acc# NM_018949), and expression was confirmed with a positive calcium signal in response to human urotensin (Sigma Aldrich). Increases in intracellular calcium were monitored using a Flexstation 384 (Molecular Devices, Sunnyvale, Calif.). The cells were batch loaded with the Calcium 4 Assay kit (Molecular Devices) in assay buffer (Hanks Balanced salt solution, HBSS, 20 mM HEPES, pH 7.4, 0.1% BSA) for 1 h at room temperature and labeled cells were dispensed into either black 96 well or 384 well assay plates (Greiner). Calcium mobilization induced by urotensin or test compounds was measured in the Flexstation 384 (excitation, 485 nm; emission, 525 nm) for 70 seconds. Agonist activity was determined by direct addition of ligand or peptides, while antagonists were identified by spiking the cells with test compounds prior to urotensin addition. A dose response curve (compound concentration versus % maximum response for urotensin) was determined for each active agonist and antagonist and was fitted to a four parameter logistic equation using SoftmaxPro 4.8 (Molecular Devices), from which EC50% and IC50% values were calculated.

in vitro [3] = assay type: cell-based; conditions: for GI50 at 48 h: human
Experimental: as §1

[4] = system: human red blood cells (hRBC); assay type: cell-based; conditions: red cells of human, 1 h
Experimental: The peptides were tested for their hemolytic activity against human red blood cells (hRBC). Fresh hRBC were washed three times with phosphate buffered saline (PBS) and centrifuged for 10 min at 2000×g. Compounds (100 μM) were incubated with 20% hRBC (v/v) for 1 h at 37° C. The final erythrocyte concentration was approximately 0.9×10^9 cells/mL. A value of 0% and 100% cell lyses, respectively, was determined by incubation of hRBC in the presence of PBS alone and 0.1% Triton X-100 in H2O, respectively. The samples were centrifuged, the supernatants were 20-fold diluted in PBS buffer and the optical densities (OD) were measured at 540 nm. The 100% lyses value (OD540H2O) gave an OD540 of approximately 1.3-1.8. Percent hemolysis was calculated as follows: […]

[5] = Plasma stability, human plasma; assay type: in vitro ADME; conditions: 37° C., sampled up to 240 min
Experimental: (§2) The stability of the peptides in human and mouse plasma was determined by applying the following method: 315 μl/deep well of freshly thawed human plasma (Basler Blutspende-dienst) and mouse plasma (Harlan Sera-Lab, UK), respectively, were spiked with 35 μl/well of compound in PBS (100 μM, triplicate) and incubated at 37° C. At t=0, 15, 30, 60, 120 and 240 min aliquots of 50 μl were transferred to filtration plate wells containing 150 μl/well of acetonitrile. Following shaking for 2 min the occurred suspensions were filtrated by vacuum and finally. 100 μl of each filtrate were transferred to a propylene microtiter plate, and analyzed by LC/MS as follows: Column: Waters, XBridge C18, mobile phases: (A) water+0.1% formic acid and (B) acetonitrile/water, 95/5 (v/v)+0.1% formic acid, gradient: 5%-100% (B) in 2 minutes, electrospray ionization, MRM detection (triple quadrupole). The peak areas were determined and triplicate values were averaged. The stability was expressed in percent of the initial value at t=0. (tx/t0×100). By using the TREND function of EXCEL (Microsoft Office 2003) T1/2 were determined.

[6] = Plasma stability, mouse plasma; assay type: in vitro ADME; conditions: 37° C., sampled up to 240 min
Experimental: as §2

NCoA-1 = molecular target: T2, NCoA-1; assay: competition fluorescence polarization; displacement of FluoSTAT6 from NCoA-1
Experimental: The mixtures were shaken thoroughly. Fluorescence polarization was measured on a SPECTRAmax M5 spectrometer (Molecular device) following 5-30 min incubation at room temperature. FluoSTAT6 was excited at 490 nm and emission polarization was detected at 525 nm. 40 intensity measurements were collected for each well, 20 at horizontal position of the dynamic polarizer, 20 at parallel position. As the fraction of FluoSTAT6 bound to NCoA-1 is correlated to the fluorescence polarization (FP), after normalization, the fraction of bound FluoSTAT6 (B) was determined, and the KD was calculated according to B=[(1+P/R+KD/R)−((1+P/R+KD/R)²−4P/R)^{0.5}]/2, wherein P is the total probe concentration, R the total protein concentration and KD the dissociation constant (M. H. Roehrl, J. Y. Wang, G. Wagner, Biochemistry 2004, 3, 16056).
To determine the Kᵢ values of potential inhibitors of the STAT6/NCoA-1 interaction (competition fluorescence polarization) the compounds (dilution series from 0 to 100 μM final concentration) dissolved in HEPES buffer (10 mM HEPES, 150 mM NaCl, 3.4 mM EDTA, 0.1% BSA) were dispensed in a black 96 well plate (Greiner) and FluoSTAT6 (200 nM final concentration) in HEPES buffer was added. The mixture was completed by a HEPES buffer solution of NCoA-1 (1 μM final concentration) and processed as described above. STAT6Y (C-terminal tyrosine extended STAT6 794-814 peptide) was used as a positive control. As the total fluorescence intensity of FluoSTAT6 remains similar for all samples, the fraction of peptide bound to NCoA-1 is correlated to the fluorescence polarization.
Following normalization data were fitted with IGORpro Software® (WaveMetrics, Lake Oswego, Oreg., USA) to a sigmoid equation to determine IC₅₀ values.

human UTR2 receptor [7] = molecular target: T3, human UTR2 receptor; assay: cell-based or functional assay

Molecule	Hemolysis at 100 μM [%] [4]	Plasmastability human pl. T1/2 [5]	Plasmastability mouse pl. T1/2 [6]	EC50% (Ca2+ assay, agonist activity) (human UTR2 receptor [7])	other results
CC(C)C[C@@H]1NC(=O)[C@@H]2CSSC[C@H](NC(=O)[C@H](CC(=O)O)NC(=O)[C@@H]3CCCN3C(=O)[C@@H](CO)NC1=O)C(=O)N[C@@H](Cc1ccccc1)C(=O)N[C@@H](Cc1c[nH]c3ccccc13)C(=O)N[C@@H](CCCCN)C(=O)N[C@@H](Cc1ccc(O)cc1)C(=O)N2 [Ex. 28]	0%	4 h	4 h		GI50 (in vitro [1]): > 50 µM; EC50 (human UTR2 receptor [2]): < 0.002 µM; GI50 (in vitro [3]): > 50 µM
CC(C)[C@@H]1NC(=O)[C@@H]2CSSC[C@H](NC(=O)[C@H](CC(=O)O)NC(=O)[C@@H]3CCCN3C(=O)[C@H]3CCCN3C1=O)C(=O)N[C@@H](Cc1ccccc1)C(=O)N[C@H](Cc1c[nH]c3ccccc13)C(=O)N[C@@H](CCCN)C(=O)N[C@@H](Cc1ccc(O)cc1)C(=O)N2 [compound 32] (cyclo(DCF[dW][Orn]YCV[dP]P); disulfide 2-7)	0%	4 h	4 h		GI50 at 48 h (in vitro [1]): > 50 µM; GI50 at 48 h (in vitro [3]): > 50 µM
NCCCC[C@@H]1NC(=O)[C@H](Cc2c[nH]c3ccccc23)NC(=O)[C@H](Cc2ccccc2)NC(=O)[C@@H]2CSSC[C@H](NC(=O)[C@H](Cc3ccc(O)cc3)NC1=O)C(=O)N[C@@H](CC1CCCCC1)C(=O)N1CCC[C@@H]1C(=O)N1CCC[C@H]1C(=O)N[C@@H](CC(=O)O)C(=O)N2 [compound 35] (cyclo(DCFWKYC[Cha][dP]P); disulfide 2-7)	0%	4 h	4 h		GI50 at 48 h (in vitro [1]): > 50 µM; GI50 at 48 h (in vitro [3]): > 50 µM
B1					Ki (NCoA-1): 15 µM
B2				< 0.002 µM	
B3				< 0.002 µM	
B4					Ki (NCoA-1): 3.6 µM
cyclo(DCF[dW]KYCV[dP]P) (disulfide 2-7) [Ex. 34]				< 0.002 µM	
cyclo(DCFWKYCV[dP]P) (disulfide 2-7) [Ex. 31]				< 0.002 µM	
B5				< 0.002 µM	
